From ChEMBL document CHEMBL2073932, “Induction of human MDR1 gene expression by 2-acetylaminofluorene is mediated by effectors of the phosphoinositide 3-kinase pathway that activate NF-kappaB signaling” (Oncogene, 2002) come the findings set out here.

For series [1], the target named is T1, ATP-dependent translocase ABCB1 (Homo sapiens, UniProt P08183). The series is described as follows: TP_TRANSPORTER: RNase protection assay in HepG2 cells. In kind it is functional, cell-based.
In series [2] the target is T1, ATP-dependent translocase ABCB1. The series is described as follows: TP_TRANSPORTER: RNase protection assay in embryonic 293 cells. It is filed as functional, cell-based. The settings on record: hek293.

Molecules are shown by their SMILES.

T1 sequence (P08183 whole entry): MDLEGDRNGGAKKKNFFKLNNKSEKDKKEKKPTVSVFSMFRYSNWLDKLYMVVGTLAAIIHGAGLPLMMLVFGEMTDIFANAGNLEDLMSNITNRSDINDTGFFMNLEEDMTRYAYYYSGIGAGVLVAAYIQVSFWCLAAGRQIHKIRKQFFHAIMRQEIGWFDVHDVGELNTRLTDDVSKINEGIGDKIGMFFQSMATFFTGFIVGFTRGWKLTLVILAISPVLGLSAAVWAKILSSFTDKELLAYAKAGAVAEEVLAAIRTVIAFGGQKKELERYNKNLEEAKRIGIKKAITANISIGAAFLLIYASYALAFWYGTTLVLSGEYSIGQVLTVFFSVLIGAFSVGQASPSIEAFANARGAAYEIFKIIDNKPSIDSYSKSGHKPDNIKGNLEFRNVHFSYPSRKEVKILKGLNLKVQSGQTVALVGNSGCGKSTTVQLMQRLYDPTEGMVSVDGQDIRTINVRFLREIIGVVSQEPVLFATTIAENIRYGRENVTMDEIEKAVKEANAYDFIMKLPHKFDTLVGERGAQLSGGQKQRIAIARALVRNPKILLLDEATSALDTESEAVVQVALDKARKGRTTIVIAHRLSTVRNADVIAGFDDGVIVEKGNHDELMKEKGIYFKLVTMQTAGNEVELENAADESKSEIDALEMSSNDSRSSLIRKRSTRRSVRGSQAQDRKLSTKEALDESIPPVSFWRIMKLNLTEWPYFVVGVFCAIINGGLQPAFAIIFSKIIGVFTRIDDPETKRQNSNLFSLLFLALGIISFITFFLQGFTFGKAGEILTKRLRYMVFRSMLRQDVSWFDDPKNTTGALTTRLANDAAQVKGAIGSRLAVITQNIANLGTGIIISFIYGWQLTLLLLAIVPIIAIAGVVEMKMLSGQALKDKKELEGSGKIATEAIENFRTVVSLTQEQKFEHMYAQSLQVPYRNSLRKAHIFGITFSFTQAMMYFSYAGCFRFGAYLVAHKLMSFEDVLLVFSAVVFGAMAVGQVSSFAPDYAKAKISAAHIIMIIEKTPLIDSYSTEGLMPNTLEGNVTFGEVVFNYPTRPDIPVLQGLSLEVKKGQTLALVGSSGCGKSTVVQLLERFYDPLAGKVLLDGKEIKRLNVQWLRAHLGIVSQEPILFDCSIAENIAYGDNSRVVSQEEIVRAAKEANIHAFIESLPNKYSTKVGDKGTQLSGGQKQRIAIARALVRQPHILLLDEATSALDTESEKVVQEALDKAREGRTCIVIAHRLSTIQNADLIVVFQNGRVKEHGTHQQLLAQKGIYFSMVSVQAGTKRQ

Consider `CC(=O)Nc1ccc2c(c1)Cc1ccccc1-2` [2-ACETYLAMINOFLUORENE], for which the Activity entry in series [1] and in series [2] was “inducer [+]” each time.
